System: LAPC-4, expressing wild-type AR

In the case of `C[C@]12CCC(=O)C[C@@H]1CC[C@@H]1[C@@H]2CC[C@]2(C)[C@@H](O)CC[C@@H]12` [DHT, 5α-dihydrotestosterone], the PSMA expression is reported as “low level of PSMA”.

— patent publication US20130315830A1, “PSMA as a BioMarker for Androgen Activity in Prostate Cancer” (Cornell University, priority 2012, published 2013)
